Several values for one entry are separate records, joined by “and”; a condition that tells them apart may be missing. Identical values can stand only once.
Legend:
[1] = system: HFHSD-fed obese C57BL6/J mice; experiment: Adipocyte size and number in perigonadal fat (H&E stain); type: in vivo, mouse; conditions: vs vehicle
Description: Tissues were fixed in 4% paraformaldehyde and then embedded in paraffin before sectioning and staining. The stained sections were scanned and analyzed using a MIRAX viewer (http://www.zeiss.de/mirax) and Image J software (http://rsbwed.nih.gov/ij/).

[2] = system: PPARγ-null 3T3-L1 clones rescued with mutant mPPARγ (C313A); experiment: Insulin-stimulated glucose uptake in PPARγ-null 3T3-L1 clones rescued with mutant mPPARγ (C313A); type: cell-based, mouse; conditions: for insulin-stimulated glucose uptake, Fig 1P right panel replicates: rescued with mPPARγ C313A
Protocol: Gene editing was performed in 3T3-L1 preadipocytes using the clustered regularly interspaced short palindromic repeats (CRISPR)/Cas9 system. Two single-guide RNAs (sgRNA) (Appendix Table S5) targeting exon 6 of mouse Pparγ were designed using a web-based design tool (http://crispr.mit.edu/). These oligonucleotides were cloned into the pSurrogate reporter and pAll-Cas9.Ppuro vector obtained from Academia Sinica, Taiwan. The pSurrogate reporter contains an EGFP and an out-of-frame mCherry downstream of the sgRNA; the pAll-Cas9.Ppuro vector expresses Cas9 nuclease and sgRNA. Once a double-strand breaking at the target site in pSurrogate reporter plasmid was created by Cas9, insertions and deletions (indels) could be introduced at the cleaved site. The indels cause frameshifts and result in the expression of the mCherry gene. 3T3-L1 preadipocytes were co-transfected with pSurrogate reporter and pAll-Cas9.Ppuro vectors at 80-90% confluency using PolyJet™ transfection reagent (cat. no. SL100688, SignaGen Laboratories, USA). Two days after transfection, EGFP/mCherry double-positive cells were enriched by fluorescent-activated cell sorting. Single cells were isolated and expanded. The genomic DNA was amplified by PCR and sequenced to confirm the knockout cell lines. The primer sequences are shown in Appendix Table S5.
The mPPARγ C313A DNA sequence was amplified from pCMV6-Pparg C313A and subcloned into the pLVX-IRES-Neo vector with XhoI/NotI restriction sites. The lentiviral expression plasmids, pMD.G, and pCMVΔR8.91 (RNAi Core, Academia Sinica, Taiwan), were co-transfected into HEK293T cells. […] HSP70 was probed with an anti-HSP70 antibody (cat. no. ab45133, Abcam) as a loading control.
Differentiated 3T3-L1 cells were starved with serum-free DMEM containing 0.2% BSA (cat. no. A9647, Sigma-Aldrich). […] Uptake of 2DG was terminated by rapidly removing medium and washing with ice-cold PBS three times. Cells were lysed with 0.1% SDS, and the radioactivity was measured using a liquid scintillation counter. Insulin-mediated glucose uptake was calculated by subtracting insulin-treated glucose uptake with basal glucose uptake.

mPPARγ-downstream genes = experiment: RT-qPCR of Glut4 and other mPPARγ-downstream genes in differentiated 3T3-L1 adipocytes; type: cell-based, mouse
Protocol: The cell lines, which were tested for mycoplasma contamination and authenticated, were purchased from the Bioresource Collection and Research Center, Taiwan. All cells were cultured at 37 °C, 5% CO2 in a humidified incubator. HEK293T cells were maintained in DMEM (cat. no. SH30003.02, HyClone) supplemented with 10% fetal bovine serum (FBS) (cat. no. 04-001-1A, Biological Industries) and 1% antibiotic/antimycotic solution (cat. no. SV30079.01, HyClone). 3T3-L1 preadipocytes were maintained at ~70% confluence in DMEM with 10% calf serum (cat. no. 16170078, Gibco) and 1% antibiotic/antimycotic solution. For adipocyte differentiation, confluent 3T3-L1 cells (defined as day 0) were exposed to an induction medium containing 10% FBS, 1 μM dexamethasone (cat. no. D4902, Sigma-Aldrich), and 1 μg/ml insulin (Humulin R, Eli Lilly) in DMEM with or without 0.5 mM isobutyl-methylxanthine (cat. no. sc-201188A, Santa Cruz Biotechnology) as indicated. After two days, the medium was replaced with DMEM containing 10% FBS and 1 μg/ml insulin and was replenished every two days until assay.
A total of 1 × 10^5 3T3-L1 preadipocytes were seeded in 6-well plates and differentiated for six days. The 3T3-L1 adipocytes were then harvested in 1 ml of REzol C&T (cat. no. PT-KP200CT, Protech), and total RNA was extracted according to the manufacturer’s instructions with slight modifications. Briefly, 200 μl of chloroform were added to 1 ml of sample in REzol, and samples were vigorously mixed by shaking for 30 s, followed by incubation at room temperature for 5 min. Then, samples were centrifuged at 12,000 × g for 15 min at 4 °C, and 400 μl of the upper aqueous phase were transferred to a new 1.5-ml tube. An equal volume of isopropanol was added. Samples were inverted several times for mixing and then centrifuged at 12,000 × g for 10 min at 4 °C. The RNA precipitate, which formed a pellet at the bottom of the 1.5-ml tube, was washed three times with 75% ethanol and air-dried for 15 min. Pellets were dissolved in RNase-free water. The concentration of RNA was measured using Nanodrop. cDNA was synthesized using a reverse transcription kit (cat. no. K1622, Thermo Scientific) using the oligo(dT)18 primers. RT-qPCR was performed in a 10-μl reaction with 50 ng cDNA and 0.2 μM primer using SYBR green reagent (cat. no. 11203ES08, YEASEN). Mouse peptidylprolyl isomerase A (Ppia) mRNA was used as the internal control. RT-qPCR reactions were performed using ABI 7900HT FAST (Applied Biosystems) and Sequence Detection Systems (SDS v2.3, Applied Biosystems). All qPCR reactions were run in duplicates. The primers used are listed in Appendix Table S3.

Cc1[nH]c2nc(C(C)N3CCN(c4ccccc4)CC3)nn2c(=O)c1Cc1ccc(F)cc1 (centres unmarked) [BPRPT0245]
adipocyte number ([1]; 100 mg/kg/day oral): not changed
adipocyte size ([1]; 100 mg/kg/day oral): reduced

CCCCCC(=O)CC[C@H]1[C@H](O)CC(=O)[C@@H]1C/C=C\CCCC(=O)O [13,14-dihydro-15-keto-PGE2]
insulin-stimulated glucose uptake, Fig 1P right panel replicates ([2]; 1314-dihydro-15kPGE2 5): 1.243 and 2.598 and 0.703
Adipoq RT-qPCR, Fig 1I replicates (mPPARγ-downstream genes; 13,14dh-15kPGE2 10μM): 1.319 and 1.153 and 1.286
Cepba RT-qPCR, Fig 1H replicates (mPPARγ-downstream genes; 13,14dh-15kPGE2 10μM): 1.374 and 0.7769 and 0.716
Acs RT-qPCR, Fig 1G replicates (mPPARγ-downstream genes; 13,14dh-15kPGE2 10): 1.301 and 1.081 and 1.404
Cd36 RT-qPCR, Fig 1F replicates (mPPARγ-downstream genes; 13,14dh-15kPGE2 10): 1.404 and 1.223 and 0.9692
Glut4 RT-qPCR, Fig 1C replicates (mPPARγ-downstream genes; 13,14dh-15kPGE2 10): 1.898 and 2.106 and 1.673
Irs2 RT-qPCR, Fig 1D replicates (mPPARγ-downstream genes; 13,14dh-15kPGE2 10): 0.9456 and 0.6593 and 0.5678
Sorbs1 RT-qPCR, Fig 1E replicates (mPPARγ-downstream genes; 13,14dh-15kPGE2 10): 1.1258 and 0.882 and 0.8066

CCCCCC(=O)/C=C/[C@H]1[C@H](O)CC(=O)[C@@H]1C/C=C\CCCC(=O)O [15-keto-PGE2, 15-keto-prostaglandin E2]
adipocyte size ([1]; 40 mg/kg/day ip): smaller
number of adipocytes ([1]; 40 mg/kg/day ip): no difference
insulin-stimulated glucose uptake, Fig 1P right panel replicates ([2]; 15kPGE2 1): 0.9792 and 1.801 and 3.6878 and 1.466
insulin-stimulated glucose uptake, Fig 1P right panel replicates ([2]; 15kPGE2 5): 0.4664 and 1.615 and 2.026 and 0.6338
insulin-stimulated glucose uptake, Fig 1P right panel replicates ([2]; 15kPGE2 10): 0.2762 and 1.684 and 2.97 and 1.874
insulin-stimulated glucose uptake, PPARγ-null clone rescued with mutant mPPARγ (C313A) ([2]; clone #1296): not when rescued with mutant mPPARγ (C313A)
Expression of Glut4 and other PPARγ-downstream genes (Irs2, Sorbs1, Cd36, Acs, Cebpa, Adipq) (mPPARγ-downstream genes; 3T3-L1 adipocytes): significantly increased
Adipoq RT-qPCR, Fig 1I replicates (mPPARγ-downstream genes; 15kPGE2 1μM): 1.0415 and 1.163 and 1.453
Cepba RT-qPCR, Fig 1H replicates (mPPARγ-downstream genes; 15kPGE2 1μM): 1.584 and 1.855 and 1.4452
Adipoq RT-qPCR, Fig 1I replicates (mPPARγ-downstream genes; 15kPGE2 5μM): 2.354 and 2.11 and 2.081
Cepba RT-qPCR, Fig 1H replicates (mPPARγ-downstream genes; 15kPGE2 5μM): 1.743 and 1.998 and 2.055
Adipoq RT-qPCR, Fig 1I replicates (mPPARγ-downstream genes; 15kPGE2 10μM): 2.022 and 2.345 and 2.444
Cepba RT-qPCR, Fig 1H replicates (mPPARγ-downstream genes; 15kPGE2 10μM): 2.675 and 2.195 and 2.109
Acs RT-qPCR, Fig 1G replicates (mPPARγ-downstream genes; 15kPGE2 1): 1.074 and 1.165 and 0.8587
Cd36 RT-qPCR, Fig 1F replicates (mPPARγ-downstream genes; 15kPGE2 1): 1.042 and 1.096 and 0.9399
Glut4 RT-qPCR, Fig 1C replicates (mPPARγ-downstream genes; 15kPGE2 1): 1.309 and 1.263 and 1.257
Irs2 RT-qPCR, Fig 1D replicates (mPPARγ-downstream genes; 15kPGE2 1): 1.164 and 1.43 and 1.116
Sorbs1 RT-qPCR, Fig 1E replicates (mPPARγ-downstream genes; 15kPGE2 1): 1.214 and 1.379 and 1.0658
Acs RT-qPCR, Fig 1G replicates (mPPARγ-downstream genes; 15kPGE2 5): 1.251 and 1.575 and 1.53
Cd36 RT-qPCR, Fig 1F replicates (mPPARγ-downstream genes; 15kPGE2 5): 1.448 and 1.619 and 1.287
Glut4 RT-qPCR, Fig 1C replicates (mPPARγ-downstream genes; 15kPGE2 5): 2.797 and 2.997 and 3.11
Irs2 RT-qPCR, Fig 1D replicates (mPPARγ-downstream genes; 15kPGE2 5): 1.3621 and 1.275 and 1.386
Sorbs1 RT-qPCR, Fig 1E replicates (mPPARγ-downstream genes; 15kPGE2 5): 1.2593 and 1.694 and 1.702
Acs RT-qPCR, Fig 1G replicates (mPPARγ-downstream genes; 15kPGE2 10): 2.4974 and 2.133 and 2.44
Cd36 RT-qPCR, Fig 1F replicates (mPPARγ-downstream genes; 15kPGE2 10): 2.006 and 2.309 and 1.915
Glut4 RT-qPCR, Fig 1C replicates (mPPARγ-downstream genes; 15kPGE2 10): 7.333 and 8.598 and 7.543
Irs2 RT-qPCR, Fig 1D replicates (mPPARγ-downstream genes; 15kPGE2 10): 2.078 and 2.094 and 1.997
Sorbs1 RT-qPCR, Fig 1E replicates (mPPARγ-downstream genes; 15kPGE2 10): 2.379 and 1.942 and 1.911
